The values that follow come from US8765679B2, “Extract and peptides derived from Oryza sativa Japonica Group and uses thereof” (Yissum Research Development Company of The Hebrew …, priority 2010, dated 2014).

Entries after “also recorded” stand apart in the source; their conditions may differ.

In test [1] the test system is Murine naïve CD4 cells. Description: Cytokine profile of RA1-treated CD4 cells (ELISA of supernatants). The format is cell-based. As to conditions: anti-CD3/anti-CD28/IL2-activated CD4 cells, supernatants at 72 h. How it is done:
Murine lymph nodes and/or spleens were mashed, harvested and single cell suspension was passed through a […] cell strainer and washed. Murine naïve CD4 cells were MACS separated using Miltenyi CD4 beads (Miltenyi Biotec GmbH, Bergisch Gladbach, ermany) according to manufacture instructions. Isolated T cells were seeded and activated with anti-CD3 […] and anti-CD28 […] (BD Biosciences, San Jose, Calif., USA) in the presence of IL2 (10 U/ml), (PeproTech Inc, Rocky Hill, N.J., USA). For cytokine production and RA1 determination supernatants were collected for ELISA. Cytokine analysis was performed in supernatants at 72 h using commercial kits: IFNγ, IL12 and IL4 (Perpotech), IL-17 (R&D systems) and IL10 (BD Biosciences).

Test [2] relates to EAE mice. Put plainly: Experimental autoimmune encephalitis (EAE) induced with MOG peptide 35-55, neurological score. As to conditions: for neurological score / neurological symptoms: oral 100 μg/kg, FIG. 2C, FIG. 3. Type of test: in vivo, Female C57BL/6 mice.
Test [3] has as its system mouse peritoneal macrophages. Put plainly: Oxidative burst of PMA-activated peritoneal macrophages (luminescence). The format is cell-based. As to conditions: for oxidative burst in activated macrophages (luminescence): added 1 minute after PMA, FIG. 6. How it is done:
Mice were injected i.p. with thioglycolate. Peritoneal macrophages were obtained and incubated with horse-reddish peroxidase and luminol. The reaction started by the addition of phorbol myristate acetate (PMA) and 1 minute later RA1 was added. Luminescence measurement was started after PMA addition. Each cycle represents 74 seconds.
Mice were injected ip with 1.5 ml thioglycolate (29.8 g/l). Peritoneal macrophages were obtained and incubated (2.5×10^6 cells/ml) in HBSS with 2 μl of 1 mM CoCl2, 2 μl 100 mM Na2SeO3, 2 μl of 10 mM luminal. The reaction started by the addition of 5 μl of 100 μM phorbol myristate acetate (PMA) (final concentration of 2.5 μM) and one minute later RA1 was added. Luminescence measurement was started after PMA addition. Each cycle represents 74 seconds.

The subject of test [4] is carrageenan-induced hind paw swelling. Put plainly: Carrageenan-induced hind paw swelling. Type of test: in vivo. The settings on record: 30 minutes prior to carrageenan, FIG. 5. How it is done:
RA1 or saline were injected 30 minutes prior to carrageenan injection into the subplantar area. The diameter of the subplantar area was measured every 60 minutes by a micrometer. […] The effect of RA1 was tested in an animal model for inflammation. Inflammation induced by carrageenan, is acute, well-researched, and highly reproducible. Cardinal signs of inflammation edema, hyperalgesia, and erythema develop immediately following subcutaneous injection, resulting from action of proinflammatory agents bradykinin, histamine, tachykinins, complement and reactive oxygen, and nitrogen species. The inflammatory response is usually quantified by increase in paw size (edema). RA1 or its vehicle, i.e., saline, was injected ip 30 minutes prior to carrageenan treatment. Carrageenan (50 μl of 3 mg/ml) was injected into the subplantar area of both limbs of each animal. The diameter of the subplantar area was measured every 60 minutes by a micrometer. The degree of swelling was assessed by the difference between thicknesses measured after and prior to carrageenan injection (zero time).
Background: The carrageenan paw model is a standard test of acute inflammation.

Test [5] concerns experimental model of MS. The settings on record: intravenous and oral administrations; cited from earlier work.
Setting [6] is: 3 times a week, starting 7 days after MOG immunization.

Take “AEMIDLAAKMLSEGRG (ORYZA SATIVA JAPONICA) [RA1, 16-mer peptide, amino acid residues 217-232 of Oryza sativa Japonica Group]”: the IFNγ production result in test [1] (FIG. 10A) is recorded as “reduction”. Further, in test [1] (FIG. 10B), the IL17 production entry is recorded as “reduction”. In addition, in test [1] (FIG. 10C), the IL4 production result is given as “elevation”. The IL10 production result in test [1] (FIG. 10D) was “elevation”. Moreover, the neurological score result is “an increased effect” in test [2] (i.p. 0.1 μg/kg, three times a week, starting seven days after MOG immunization, FIG. 4) and “significantly improved” in test [2] (i.v., once on the day of MOG immunization, FIG. 2A). The “neurological score / neurological symptoms” value in test [2] (setting [6]) is “beneficial in reducing the neurological symptoms; also recorded: an increased effect”. For the same sequence, the “oxidative burst in activated macrophages (luminescence)” value is “less effective” in test [3] (0.1 ng/ml), “less effective” in test [3] (1.0 ng/ml) and “strongly inhibited” in test [3] (10 ng/ml). Further, the hydroxyl radical scavenger result in test [3] (summary statement referring to Example 6) was “highly effective”. The “swelling induced after the carrageenan injection” value in test [4] (one dose 1.0 μg/kg ip) and in test [4] (one dose 10 μg/kg ip) was “significantly reduced” throughout.
“KGHYAERVG (listed as Homo sapiens) [IIIM1, 9-mer peptide derived from human histone H2A]”: the “neurological symptoms in the diseased mice” value in test [5] is “significantly ameliorated the neurological symptoms”.
With “AEMIDLAAKMLSEGR (ORYZA SATIVA JAPONICA) [RA3]”, the “neurological score / neurological symptoms” value in test [2] (setting [6]) is “reduction of the neurological score”.
As to “EMIDLAAKMLSEGRG (ORYZA SATIVA JAPONICA) [RA2]”, the neurological score result in test [2] (i.p. 1 μg/kg, 3 times a week, starting 7 days after MOG immunization, FIG. 2B, FIG. 4) is listed as “reduction of the neurological score”.
Regarding “AEMIDLAAKMLSEG (ORYZA SATIVA JAPONICA) [RA4]”, in test [2] (setting [6]), the “neurological score / neurological symptoms” value was “reduction of the neurological score”.
